# According to ChEMBL document CHEMBL1144632, “The rational design of inhibitors of nitric oxide formation by inducible nitric oxide synthase” (Bioorg Med Chem Lett, 2007):
# The source made the active and inactive calls. No cut-off for these calls is given here.
# Target: Nitric oxide synthase, inducible (Homo sapiens, UniProt P35228)
# Assay: Inhibition of iNOS in human A172 cells after 18 to 24 hrs
# Assay type: cell-based, A 172
# Sequence of Nitric oxide synthase, inducible (P35228 whole entry): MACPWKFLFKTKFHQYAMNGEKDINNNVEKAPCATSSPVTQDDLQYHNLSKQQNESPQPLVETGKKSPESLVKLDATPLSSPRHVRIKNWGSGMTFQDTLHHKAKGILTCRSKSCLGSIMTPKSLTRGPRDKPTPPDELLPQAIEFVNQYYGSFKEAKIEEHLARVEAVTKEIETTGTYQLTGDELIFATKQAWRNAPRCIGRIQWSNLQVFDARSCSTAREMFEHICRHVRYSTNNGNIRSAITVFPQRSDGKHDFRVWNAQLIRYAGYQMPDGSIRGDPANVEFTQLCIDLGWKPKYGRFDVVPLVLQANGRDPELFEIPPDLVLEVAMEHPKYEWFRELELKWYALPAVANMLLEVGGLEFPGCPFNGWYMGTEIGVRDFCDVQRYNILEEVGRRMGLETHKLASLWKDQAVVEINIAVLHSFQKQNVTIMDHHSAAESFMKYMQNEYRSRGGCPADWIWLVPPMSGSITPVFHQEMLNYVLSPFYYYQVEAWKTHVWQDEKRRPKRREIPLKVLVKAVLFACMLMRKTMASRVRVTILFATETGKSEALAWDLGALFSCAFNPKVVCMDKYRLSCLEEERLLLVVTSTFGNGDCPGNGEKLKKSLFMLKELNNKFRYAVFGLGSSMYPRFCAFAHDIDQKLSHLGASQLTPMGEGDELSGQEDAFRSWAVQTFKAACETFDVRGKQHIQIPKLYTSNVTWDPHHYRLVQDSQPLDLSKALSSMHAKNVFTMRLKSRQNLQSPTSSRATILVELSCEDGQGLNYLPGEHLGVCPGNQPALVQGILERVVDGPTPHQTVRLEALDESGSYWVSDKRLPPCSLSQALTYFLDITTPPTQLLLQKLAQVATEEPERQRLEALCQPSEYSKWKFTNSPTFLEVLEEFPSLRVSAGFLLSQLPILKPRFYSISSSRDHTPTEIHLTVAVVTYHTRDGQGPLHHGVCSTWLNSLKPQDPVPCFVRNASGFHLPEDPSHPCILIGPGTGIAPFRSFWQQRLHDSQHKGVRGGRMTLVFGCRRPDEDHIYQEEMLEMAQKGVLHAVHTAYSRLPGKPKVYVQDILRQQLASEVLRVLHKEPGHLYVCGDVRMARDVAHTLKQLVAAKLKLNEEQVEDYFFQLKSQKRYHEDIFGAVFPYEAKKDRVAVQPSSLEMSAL
row,SMILES,IC50 [nM]
1,c1cn(-c2ccc(Oc3cc(Oc4ccc5c(c4)OCO5)ncn3)cc2)cn1,> 10000
2,CN(C)CCCN(C)c1cc(Oc2ccc(-n3ccnc3)cc2)nc(Cc2ccc3c(c2)OCO3)n1,220
3,Cc1cc(Oc2ccc3c(c2)OCO3)nc(Oc2ccc(-n3ccnc3)cc2Cl)n1,19
4,c1cc(Oc2ccc(-n3ccnc3)cc2)nc(Oc2ccc3c(c2)OCO3)c1,78
5,Cc1cc(Oc2ccc3c(c2)OCO3)nc(Oc2ccc(-n3ccnc3)cc2)n1,90
6,Cc1cc(Oc2ccc3c(c2)OCO3)nc(Oc2ccc(-n3ccnc3)cc2C(F)(F)F)n1,220

# The next lines start with the values.
row,IC50 [nM],SMILES
1,130,Cc1cnc(Oc2ccc(-n3ccnc3)cc2)nc1Oc1ccc2c(c1)OCO2
2,55,c1cn(-c2ccc(Oc3nccc(Oc4ccc5c(c4)OCO5)n3)cc2)cn1
3,> 10000,Clc1cc(Oc2ccc(-n3ccnc3)cc2)nc(Cc2ccc3c(c2)OCO3)n1
4,92,Cc1cc(Oc2ccc3c(c2)OCO3)nc(Oc2ccc(-n3ccnc3)cc2F)n1
5,74,c1cn(-c2ccc(Oc3ccnc(Oc4ccc5c(c4)OCO5)n3)cc2)cn1
6,450,Cc1c(F)c(Oc2ccc(-n3ccnc3)cc2)nc(Oc2ccc3c(c2)OCO3)c1F
7,830,c1cn(-c2ccc(Oc3cc(N4CCOCC4)nc(Cc4ccc5c(c4)OCO5)n3)cc2)cn1

# Target: Nitric oxide synthase 1 (Homo sapiens) (UniProt P29475)
# Sequence (P29475 whole entry): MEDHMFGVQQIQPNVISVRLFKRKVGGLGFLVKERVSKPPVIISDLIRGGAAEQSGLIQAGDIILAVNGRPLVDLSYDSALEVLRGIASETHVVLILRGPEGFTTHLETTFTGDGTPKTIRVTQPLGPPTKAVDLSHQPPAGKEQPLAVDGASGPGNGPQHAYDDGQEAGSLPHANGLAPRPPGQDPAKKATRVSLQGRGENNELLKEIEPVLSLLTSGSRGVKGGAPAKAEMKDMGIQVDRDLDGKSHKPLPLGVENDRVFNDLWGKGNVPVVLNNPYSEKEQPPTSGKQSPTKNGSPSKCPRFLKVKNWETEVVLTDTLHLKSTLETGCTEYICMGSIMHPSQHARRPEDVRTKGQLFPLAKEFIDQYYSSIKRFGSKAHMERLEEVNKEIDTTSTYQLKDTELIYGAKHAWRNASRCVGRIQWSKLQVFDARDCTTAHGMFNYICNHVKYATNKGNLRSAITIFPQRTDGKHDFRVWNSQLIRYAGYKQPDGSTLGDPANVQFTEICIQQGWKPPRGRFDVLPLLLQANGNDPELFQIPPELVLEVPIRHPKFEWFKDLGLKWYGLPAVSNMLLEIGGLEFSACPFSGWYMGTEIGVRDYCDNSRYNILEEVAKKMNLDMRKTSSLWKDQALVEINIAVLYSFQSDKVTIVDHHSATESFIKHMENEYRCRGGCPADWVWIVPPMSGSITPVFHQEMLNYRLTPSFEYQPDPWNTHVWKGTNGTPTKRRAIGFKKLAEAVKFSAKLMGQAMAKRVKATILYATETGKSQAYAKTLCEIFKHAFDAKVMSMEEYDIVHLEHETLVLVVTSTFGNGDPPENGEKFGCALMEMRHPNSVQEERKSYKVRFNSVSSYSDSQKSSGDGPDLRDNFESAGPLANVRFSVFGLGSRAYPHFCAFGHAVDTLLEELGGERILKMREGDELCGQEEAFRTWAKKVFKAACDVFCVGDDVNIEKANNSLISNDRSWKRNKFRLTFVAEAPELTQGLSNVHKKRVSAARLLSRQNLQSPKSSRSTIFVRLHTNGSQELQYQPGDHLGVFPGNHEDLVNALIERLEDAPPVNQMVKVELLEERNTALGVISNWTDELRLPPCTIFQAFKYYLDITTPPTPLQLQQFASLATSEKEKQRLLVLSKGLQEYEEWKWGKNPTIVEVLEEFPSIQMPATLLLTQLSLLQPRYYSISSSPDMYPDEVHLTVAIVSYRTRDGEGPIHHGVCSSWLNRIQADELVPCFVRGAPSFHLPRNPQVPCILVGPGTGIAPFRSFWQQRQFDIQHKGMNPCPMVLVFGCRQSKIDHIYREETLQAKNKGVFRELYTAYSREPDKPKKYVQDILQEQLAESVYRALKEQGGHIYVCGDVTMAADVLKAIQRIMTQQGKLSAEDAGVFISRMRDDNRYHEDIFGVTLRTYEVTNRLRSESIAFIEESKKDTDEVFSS
# Assay: Inhibition of bNOS
row,Activity,SMILES
1,inactive,c1cn(-c2ccc(Oc3nccc(Oc4ccc5c(c4)OCO5)n3)cc2)cn1

# Target: T1, Nitric oxide synthase 3 (Homo sapiens) (UniProt P29474)
# T1 sequence (whole entry): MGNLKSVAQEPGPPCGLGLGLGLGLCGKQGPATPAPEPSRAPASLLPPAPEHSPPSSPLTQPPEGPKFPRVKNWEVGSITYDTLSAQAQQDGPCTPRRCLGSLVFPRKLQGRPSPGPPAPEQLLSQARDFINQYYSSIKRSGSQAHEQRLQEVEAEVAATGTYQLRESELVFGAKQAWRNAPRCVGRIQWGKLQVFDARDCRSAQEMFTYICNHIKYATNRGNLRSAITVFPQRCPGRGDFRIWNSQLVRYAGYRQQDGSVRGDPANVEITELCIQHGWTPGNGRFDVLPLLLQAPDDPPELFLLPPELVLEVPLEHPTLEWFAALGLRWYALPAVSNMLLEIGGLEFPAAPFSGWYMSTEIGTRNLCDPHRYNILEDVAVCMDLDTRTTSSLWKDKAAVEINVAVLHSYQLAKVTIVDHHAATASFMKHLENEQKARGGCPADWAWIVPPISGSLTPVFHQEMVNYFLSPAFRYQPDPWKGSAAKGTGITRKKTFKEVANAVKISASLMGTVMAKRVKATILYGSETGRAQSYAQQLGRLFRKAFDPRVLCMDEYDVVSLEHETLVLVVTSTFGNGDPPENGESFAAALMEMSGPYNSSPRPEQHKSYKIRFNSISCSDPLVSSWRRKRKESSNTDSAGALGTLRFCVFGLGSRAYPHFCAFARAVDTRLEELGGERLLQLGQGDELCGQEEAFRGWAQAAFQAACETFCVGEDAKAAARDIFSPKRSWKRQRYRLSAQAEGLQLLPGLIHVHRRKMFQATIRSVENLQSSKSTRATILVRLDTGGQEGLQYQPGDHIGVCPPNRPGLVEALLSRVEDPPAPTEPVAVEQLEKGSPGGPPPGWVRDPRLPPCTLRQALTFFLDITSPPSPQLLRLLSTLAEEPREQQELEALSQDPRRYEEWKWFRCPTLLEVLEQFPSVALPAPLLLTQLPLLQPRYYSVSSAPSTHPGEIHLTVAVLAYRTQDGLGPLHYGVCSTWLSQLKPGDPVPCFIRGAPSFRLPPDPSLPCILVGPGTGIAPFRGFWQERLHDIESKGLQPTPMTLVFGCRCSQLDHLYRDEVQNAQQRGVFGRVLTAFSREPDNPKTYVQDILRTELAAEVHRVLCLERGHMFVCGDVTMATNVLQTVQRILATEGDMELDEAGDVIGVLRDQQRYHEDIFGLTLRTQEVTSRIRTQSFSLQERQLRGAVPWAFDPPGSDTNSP
# Assay: Inhibition of eNOS
row,Activity,SMILES
1,inactive,c1cn(-c2ccc(Oc3nccc(Oc4ccc5c(c4)OCO5)n3)cc2)cn1
